Values of other authors, collected in patent publication US9603795B2, “Composite for preparing a transdermal delivery device and method for synthesizing the composite thereof” (City University of Hong Kong, priority 2014, dated 2017).

Conditions: oral administration

OC[C@H]1O[C@@H]2O[C@H]3[C@H](O)[C@@H](O)[C@@H](O[C@H]4[C@H](O)[C@@H](O)[C@@H](O[C@H]5[C@H](O)[C@@H](O)[C@@H](O[C@H]6[C@H](O)[C@@H](O)[C@@H](O[C@H]7[C@H](O)[C@@H](O)[C@@H](O[C@H]8[C@H](O)[C@@H](O)[C@@H](O[C@H]1[C@H](O)[C@H]2O)O[C@@H]8CO)O[C@@H]7CO)O[C@@H]6CO)O[C@@H]5CO)O[C@@H]4CO)O[C@@H]3CO [β-CD, β-cyclodextrin]
amount absorbed in the upper intestinal tract: 1-2%
